The values that follow come from ChEMBL document CHEMBL5729474, “Heterocyclic compound as a protein kinase inhibitor” (2022).

In the assay the target is Tyrosine-protein kinase JAK1 (Homo sapiens, UniProt P23458). Nature of the assay: ADP-Glo Kinase Assay: A control material and a test material were prepared for each concentration, in such a way that they were diluted by means of DMSO. At the same time, ATP (250 uM) and JAK substrate (JAK1, IRS-itide 40 ng/mL) were prepared, in such a way that they were diluted by means of kinase buffer (40 mM Tris-HCl pH 7.5, 20 mM MgCl2, 0.5 mg/mL BSA, 50 uM DTT).A test drug for each concentration, substrate, ATP and JAK enzyme were mixed in an eppendorf tube, and reacted in a 30° C. incubator for 40 minutes.ADP-Glo™ reagent contained in ADP-Glo™ Kinase Enzyme System (Promega, USA, V9571) was added into each eppendorf tube, and reacted in a 30° C. incubator for 40 minutes. A kinase detection reagent contained in ADP-Go™ Kinase Enzyme System was inserted into the eppendorf tube, then an integration time was set to 1 second by using Wallac Victor 2™, then luminescence was measured, and then JAKs phosphorylation inhibition ability of the test material was analyzed. The concentration of the compound, which causes 50% of the JAK enzyme activity inhibition in comparison With the control group, was determined as IC50 (nM) of an inhibitor, wherein the results thereof are shown in a following table 1. For orientation: ADP-Glo first removes unused ATP, then detects ADP through luciferase.
Sequence of Tyrosine-protein kinase JAK1 (P23458 whole entry): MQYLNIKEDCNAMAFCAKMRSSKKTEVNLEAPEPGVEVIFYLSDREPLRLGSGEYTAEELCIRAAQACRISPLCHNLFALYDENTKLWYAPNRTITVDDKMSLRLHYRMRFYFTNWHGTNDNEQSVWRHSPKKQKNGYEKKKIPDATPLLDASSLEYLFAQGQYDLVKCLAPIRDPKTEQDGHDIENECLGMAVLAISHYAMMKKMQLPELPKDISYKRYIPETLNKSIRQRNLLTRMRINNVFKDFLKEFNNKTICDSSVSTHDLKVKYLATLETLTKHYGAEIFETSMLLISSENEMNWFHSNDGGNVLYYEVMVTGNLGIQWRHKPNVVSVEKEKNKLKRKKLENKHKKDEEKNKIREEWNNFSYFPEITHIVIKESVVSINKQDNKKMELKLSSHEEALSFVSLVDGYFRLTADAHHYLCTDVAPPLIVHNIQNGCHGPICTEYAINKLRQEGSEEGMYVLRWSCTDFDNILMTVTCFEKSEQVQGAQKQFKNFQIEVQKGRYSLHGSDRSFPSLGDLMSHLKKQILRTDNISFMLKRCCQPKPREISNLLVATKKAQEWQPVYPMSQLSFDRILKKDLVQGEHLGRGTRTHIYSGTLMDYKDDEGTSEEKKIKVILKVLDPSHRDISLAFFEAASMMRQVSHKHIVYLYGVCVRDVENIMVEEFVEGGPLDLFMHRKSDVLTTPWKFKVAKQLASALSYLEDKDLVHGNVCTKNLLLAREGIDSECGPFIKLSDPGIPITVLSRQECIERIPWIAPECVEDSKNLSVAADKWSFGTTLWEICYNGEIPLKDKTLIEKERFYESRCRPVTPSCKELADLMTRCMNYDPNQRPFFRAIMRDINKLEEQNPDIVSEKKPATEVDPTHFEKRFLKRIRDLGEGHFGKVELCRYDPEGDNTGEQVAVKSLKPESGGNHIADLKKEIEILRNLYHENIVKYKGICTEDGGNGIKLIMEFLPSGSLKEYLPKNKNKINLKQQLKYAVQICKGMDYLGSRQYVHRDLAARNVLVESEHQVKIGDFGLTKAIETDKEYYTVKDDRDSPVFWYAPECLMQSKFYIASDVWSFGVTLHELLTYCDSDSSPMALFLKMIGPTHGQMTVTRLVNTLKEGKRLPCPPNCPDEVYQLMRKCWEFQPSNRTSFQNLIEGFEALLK
For orientation: IC50 means the point on the concentration scale where inhibition reaches its midpoint. A low value points to higher potency. Take `CCC(=O)Nc1cc(-c2ccc(NS(=O)(=O)CC)c(F)c2)c2cc[nH]c2n1`: the IC50 was > 200 nM.

With `CC1CN(C(=O)c2cc(Cl)ncc2Cl)CC=C1c1cc(NC(=O)C2CC2)nc2[nH]ccc12` (centres undefined), the IC50 was > 200 nM.

With `O=C(Nc1cc(C2=CCN(C(=O)CBr)CC2)c2cc[nH]c2n1)C1CC1`, the IC50 is > 200 nM.

As for `CCS(=O)(=O)Nc1ccc(-c2cc(NC(=O)C3CCCC3)nc3[nH]ccc23)cc1F`, the IC50 is > 200 nM.

Turning to `CCS(=O)(=O)Nc1ccc(-c2cc(NC(=O)C3CCCCC3)nc3[nH]ccc23)cc1F`, the IC50 is > 200 nM.

Regarding `CC1CN(C(=O)c2cc(Cl)cc(Cl)c2O)CC=C1c1cc(NC(=O)C2CC2)nc2[nH]ccc12` (centres undefined), the IC50 is > 200 nM.

As for `O=C(Nc1cc(-c2ccc(CC(=O)N3CCN(S(=O)(=O)C(F)(F)F)CC3)cc2)c2cc[nH]c2n1)C1CC1`, the IC50 is > 200 nM.

As to `O=C(Nc1ccc(F)cc1)Nc1ccc(-c2cc(NC(=O)C3CC3)nc3[nH]ccc23)cc1`, the IC50 is > 200 nM.

Regarding `CCS(=O)(=O)Nc1ccc(-c2cc(NC(=O)Cc3ccccc3)nc3[nH]ccc23)cc1F`, the IC50 is > 200 nM.
